# Experimental data taken from patent US8637484B2, “Modulation of growth hormone receptor expression and insulin-like growth factor expression” (Antisense Therapeutic Limited, priority 2003, dated 2014).
# In the oligonucleotide strings, read from the 5' end, every base follows the letter of its sugar. An asterisk marks phosphorothioate; unmarked linkages are phosphodiester. Other units and linkages are bracketed, terminal groups are in braces. A string of capitals states the bases alone. e = 2'-O-(2-methoxyethyl) (MOE); [5mC] = 5-methylcytosine; d = 2'-deoxy (DNA)
# What was measured:
# [1] = test system: mouse growth hormone receptor mRNA; test: Inhibition of mouse growth hormone receptor mRNA levels in b.END cells, quantitative real-time PCR; assay type: cell-based; conditions: dose-response studies
# [2] = test system: growth hormone receptor mRNA; test: Growth hormone receptor mRNA levels in liver, two-week mouse study; assay type: in vivo
# Procedure: A two-week study was done in similar fashion to the one-week study in Example 18, this time using ISIS 227446 at doses of 3, 5, 10, 20 and 30 mg/kg. The mismatch control was given at the same doses. Mice were treated with antisense compound or saline every other day for 14 days.
# Growth hormone receptor mRNA levels in liver tissue samples from treated and untreated mice in this two-week study were assayed. The growth hormone receptor antisense inhibitor ISIS 227446 reduced growth hormone receptor mRNA levels in liver after the two-week study by 50% at the 20 mg/kg dose relative to saline control (p<0.001). The 30 mg/kg dose of ISIS 227446 yielded a 53% decrease in growth hormone receptor mRNA (p<0.0001). The mismatch control oligonucleotide ISIS 261303 (SEQ ID NO: 267), at 30 mg/kg, reduced growth hormone receptor mRNA levels by approximately 3%.
# [3] = Body weight, growth and organ weights, 1 week pilot study; assay type: in vivo, mouse; conditions: 1 week study; g/total body weight
# Procedure: Saline, antisense, mismatch control and octreotide samples were prepared, and coded for blinding. Animals were given a subcutaneous dose of saline every second day, and mismatch control or antisense with administration on days 0, 2, 4, 6. Animals were given twice daily doses of 25 μg octreotide. Animals were housed 4 per cage, for the duration of one week. They had access to a pre-determined quantity of standard mouse food and water at all times throughout the experiment. They were housed in a quiet, temperature- and humidity-maintained environment for the entirety of the study. At day 0 and before treatment on each day or second day, the animals had their body weight and food intake measured, enabling the correct dose of agent to be administered. The animals were monitored closely for any changes in fur, skin, eye, locomotion or other changes in behavior. No problems were observed. Every second day from day −7 to day 7 body weight and food intake were measured.
# The serum remaining following the insulin-like growth factor-1 assay was isolated and stored at −80° C. The whole liver was removed rapidly for weighing and snap-frozen in labelled aluminum parcels by submersion in liquid-nitrogen. […]
# This confirms published results of others. […] Weight was measured in two ways: weight trend (live animal), and final carcass weight. […]
substance,measurement,setting,value
acaaagatccatacctgaga (eA*e[5mC]*eA*eA*eA*dG*dA*dT*d[5mC]*d[5mC]*dA*dT*dA*d[5mC]*d[5mC]*eT*eG*eA*eG*eA; antisense) [ISIS 227446],IC50,[1],~25 nM
same,reduction of growth hormone receptor mRNA levels in liver relative to saline control,[2]; 20 mg/kg,50%
same,decrease in growth hormone receptor mRNA in liver,[2]; 30 mg/kg,53%
same,liver weight,[3],unaffected
